# Reference: ChEMBL document CHEMBL4507310, “Data for DCP probe A-1211212” (2021)
# How the values were obtained:
# [1] = target: MAO-B (amine oxidase [flavin-containing] B) (Homo sapiens, UniProt P27338); assay: MAO-B (h) recombinant enzyme Eurofins-Cerep enzyme and uptake assay; parameters: incubation time 60 min, incubation temperature 37°C, substrate/stimulus/tracer D-Luciferin derivative (4 µM); conditions: probe D-Luciferin derivative (4 µM), compound concentration 10 uM, read-out: % Inhibition of Control Values (Mean n=2)
# [2] = target: Alpha-1A adrenergic receptor (Homo sapiens) (UniProt P35348); assay: Alpha1A (h) Eurofins-Cerep binding assay; parameters: ligand concentration 0.1 nM; conditions: filed as antagonist, Compound concentration 10.0 uM
# [3] = target: T1, Muscarinic acetylcholine receptor M2 (Homo sapiens) (UniProt P08172); assay: M2 (h) Eurofins-Cerep binding assay; parameters: ligand concentration 2 nM; conditions: filed as antagonist, Compound concentration 10.0 uM
# T1 sequence (whole entry): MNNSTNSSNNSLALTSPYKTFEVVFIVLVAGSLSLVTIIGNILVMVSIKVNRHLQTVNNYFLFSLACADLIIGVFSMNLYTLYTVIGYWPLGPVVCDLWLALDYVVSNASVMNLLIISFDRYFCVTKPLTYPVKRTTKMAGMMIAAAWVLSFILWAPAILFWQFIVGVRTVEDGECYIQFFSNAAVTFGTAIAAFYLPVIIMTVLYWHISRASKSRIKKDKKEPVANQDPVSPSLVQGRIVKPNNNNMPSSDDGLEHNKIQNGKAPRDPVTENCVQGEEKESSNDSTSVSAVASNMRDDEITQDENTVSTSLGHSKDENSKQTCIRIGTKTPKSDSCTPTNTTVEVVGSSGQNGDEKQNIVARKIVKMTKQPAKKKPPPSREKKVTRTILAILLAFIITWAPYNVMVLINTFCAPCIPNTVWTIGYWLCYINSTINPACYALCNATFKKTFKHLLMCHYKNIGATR
# [4] = target: Substance-P receptor (Homo sapiens) (UniProt P25103); assay: NK1 (h) Eurofins-Cerep binding assay; parameters: ligand concentration 0.05 nM; conditions: filed as agonist, Compound concentration 10.0 uM
# Chain of Substance-P receptor (Homo sapiens) (P25103 whole entry): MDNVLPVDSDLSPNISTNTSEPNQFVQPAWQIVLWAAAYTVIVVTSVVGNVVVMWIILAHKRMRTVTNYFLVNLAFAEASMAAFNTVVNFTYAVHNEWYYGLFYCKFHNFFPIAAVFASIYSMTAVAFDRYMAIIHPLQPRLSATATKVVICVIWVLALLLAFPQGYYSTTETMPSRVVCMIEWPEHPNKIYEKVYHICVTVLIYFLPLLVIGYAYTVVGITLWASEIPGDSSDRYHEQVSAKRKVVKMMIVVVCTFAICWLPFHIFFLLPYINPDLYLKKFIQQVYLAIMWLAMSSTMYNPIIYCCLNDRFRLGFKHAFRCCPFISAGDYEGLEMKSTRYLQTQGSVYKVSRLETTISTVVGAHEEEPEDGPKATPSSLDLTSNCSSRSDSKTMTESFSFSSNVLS
# [5] = target: Sodium- and chloride-dependent GABA transporter 1 (Rattus norvegicus) (UniProt P23978); assay: GABA transporter Eurofins-Cerep binding assay; parameters: ligand concentration 10 nM; conditions: filed as antagonist, Compound concentration 10.0 uM
# [6] = target: Tyrosine-protein kinase ABL1 (Homo sapiens) (UniProt P00519); conditions: Compound concentration 1000.0 nM
# Chain of Tyrosine-protein kinase ABL1 (Homo sapiens) (P00519 whole entry): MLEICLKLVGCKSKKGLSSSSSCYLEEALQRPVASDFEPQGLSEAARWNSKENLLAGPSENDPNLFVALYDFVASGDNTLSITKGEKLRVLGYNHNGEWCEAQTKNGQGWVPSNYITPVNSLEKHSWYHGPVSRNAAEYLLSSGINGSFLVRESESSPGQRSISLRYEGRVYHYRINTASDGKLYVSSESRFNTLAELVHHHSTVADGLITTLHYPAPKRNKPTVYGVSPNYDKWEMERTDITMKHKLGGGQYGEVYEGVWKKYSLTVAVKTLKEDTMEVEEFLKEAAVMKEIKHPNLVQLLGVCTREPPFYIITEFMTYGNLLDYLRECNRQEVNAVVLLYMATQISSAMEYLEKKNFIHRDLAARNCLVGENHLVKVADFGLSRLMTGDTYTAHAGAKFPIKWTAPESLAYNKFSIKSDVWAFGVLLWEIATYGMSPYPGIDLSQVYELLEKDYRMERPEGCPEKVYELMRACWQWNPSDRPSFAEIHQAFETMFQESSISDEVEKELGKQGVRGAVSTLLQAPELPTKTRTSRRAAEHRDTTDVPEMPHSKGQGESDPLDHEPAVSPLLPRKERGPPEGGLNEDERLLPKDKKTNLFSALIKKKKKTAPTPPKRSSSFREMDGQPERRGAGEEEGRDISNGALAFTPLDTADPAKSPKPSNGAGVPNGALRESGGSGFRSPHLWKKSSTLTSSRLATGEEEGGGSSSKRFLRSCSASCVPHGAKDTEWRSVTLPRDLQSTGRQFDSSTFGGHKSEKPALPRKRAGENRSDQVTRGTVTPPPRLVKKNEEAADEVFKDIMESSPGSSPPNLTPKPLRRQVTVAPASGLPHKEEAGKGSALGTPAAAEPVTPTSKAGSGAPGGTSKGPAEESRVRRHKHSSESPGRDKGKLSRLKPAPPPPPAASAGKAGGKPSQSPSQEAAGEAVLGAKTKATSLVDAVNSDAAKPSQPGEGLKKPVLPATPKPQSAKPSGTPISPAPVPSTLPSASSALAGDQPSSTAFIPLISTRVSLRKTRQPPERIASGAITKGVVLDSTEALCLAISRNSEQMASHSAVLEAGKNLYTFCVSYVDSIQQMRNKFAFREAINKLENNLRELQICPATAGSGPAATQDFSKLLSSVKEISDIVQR
# [7] = target: Tyrosine-protein kinase ABL1 (Homo sapiens) (UniProt P00519); conditions: Compound concentration 1000.0 nM; remark: listed apart in the source
# [8] = target: Atypical kinase COQ8B, mitochondrial (Homo sapiens) (UniProt Q96D53); conditions: Compound concentration 1000.0 nM
# [9] = target: BMP-2-inducible protein kinase (Homo sapiens) (UniProt Q9NSY1); conditions: Compound concentration 1000.0 nM
# [10] = target: Serine/threonine-protein kinase BRSK2 (Homo sapiens) (UniProt Q8IWQ3); conditions: Compound concentration 1000.0 nM
# [11] = target: Peripheral plasma membrane protein CASK (Homo sapiens) (UniProt O14936); conditions: Compound concentration 1000.0 nM
# [12] = target: Epithelial discoidin domain-containing receptor 1 (Homo sapiens) (UniProt Q08345); conditions: Compound concentration 1000.0 nM
# [13] = target: Tyrosine-protein kinase Fer (Homo sapiens) (UniProt P16591); conditions: Compound concentration 1000.0 nM
# [14] = target: Tyrosine-protein kinase Fyn (Homo sapiens) (UniProt P06241); conditions: Compound concentration 1000.0 nM
# [15] = system: eIF-2-alpha kinase GCN2 (Homo sapiens), Q9P2K8 [S808G]; conditions: Compound concentration 1000.0 nM
# [16] = target: Interleukin-1 receptor-associated kinase 4 (Homo sapiens) (UniProt Q9NWZ3); conditions: Compound concentration 1000.0 nM
# [17] = target: Tyrosine-protein kinase ITK/TSK (Homo sapiens) (UniProt Q08881); conditions: Compound concentration 1000.0 nM
# [18] = target: Serine/threonine-protein kinase MARK2 (Homo sapiens) (UniProt Q7KZI7); conditions: Compound concentration 1000.0 nM
# [19] = target: MAP/microtubule affinity-regulating kinase 3 (Homo sapiens) (UniProt P27448); conditions: Compound concentration 1000.0 nM
# [20] = target: Serine/threonine-protein kinase MRCK beta (Homo sapiens) (UniProt Q9Y5S2); conditions: Compound concentration 1000.0 nM
# [21] = target: Serine/threonine-protein kinase Nek2 (Homo sapiens) (UniProt P51955); conditions: Compound concentration 1000.0 nM
# [22] = target: Serine/threonine-protein kinase NLK (Homo sapiens) (UniProt Q9UBE8); conditions: Compound concentration 1000.0 nM
# [23] = system: Phosphatidylinositol 4,5-bisphosphate 3-kinase catalytic subunit alpha isoform (Homo sapiens), P42336 [H1047L]; conditions: Compound concentration 1000.0 nM
# [24] = system: Phosphatidylinositol 4,5-bisphosphate 3-kinase catalytic subunit alpha isoform (Homo sapiens), P42336 [H1047Y]; conditions: Compound concentration 1000.0 nM
# Chain of Phosphatidylinositol 4,5-bisphosphate 3-kinase catalytic subunit alpha isoform (Homo sapiens), P42336 [H1047Y] (P42336 whole entry H1047Y, canonical isoform): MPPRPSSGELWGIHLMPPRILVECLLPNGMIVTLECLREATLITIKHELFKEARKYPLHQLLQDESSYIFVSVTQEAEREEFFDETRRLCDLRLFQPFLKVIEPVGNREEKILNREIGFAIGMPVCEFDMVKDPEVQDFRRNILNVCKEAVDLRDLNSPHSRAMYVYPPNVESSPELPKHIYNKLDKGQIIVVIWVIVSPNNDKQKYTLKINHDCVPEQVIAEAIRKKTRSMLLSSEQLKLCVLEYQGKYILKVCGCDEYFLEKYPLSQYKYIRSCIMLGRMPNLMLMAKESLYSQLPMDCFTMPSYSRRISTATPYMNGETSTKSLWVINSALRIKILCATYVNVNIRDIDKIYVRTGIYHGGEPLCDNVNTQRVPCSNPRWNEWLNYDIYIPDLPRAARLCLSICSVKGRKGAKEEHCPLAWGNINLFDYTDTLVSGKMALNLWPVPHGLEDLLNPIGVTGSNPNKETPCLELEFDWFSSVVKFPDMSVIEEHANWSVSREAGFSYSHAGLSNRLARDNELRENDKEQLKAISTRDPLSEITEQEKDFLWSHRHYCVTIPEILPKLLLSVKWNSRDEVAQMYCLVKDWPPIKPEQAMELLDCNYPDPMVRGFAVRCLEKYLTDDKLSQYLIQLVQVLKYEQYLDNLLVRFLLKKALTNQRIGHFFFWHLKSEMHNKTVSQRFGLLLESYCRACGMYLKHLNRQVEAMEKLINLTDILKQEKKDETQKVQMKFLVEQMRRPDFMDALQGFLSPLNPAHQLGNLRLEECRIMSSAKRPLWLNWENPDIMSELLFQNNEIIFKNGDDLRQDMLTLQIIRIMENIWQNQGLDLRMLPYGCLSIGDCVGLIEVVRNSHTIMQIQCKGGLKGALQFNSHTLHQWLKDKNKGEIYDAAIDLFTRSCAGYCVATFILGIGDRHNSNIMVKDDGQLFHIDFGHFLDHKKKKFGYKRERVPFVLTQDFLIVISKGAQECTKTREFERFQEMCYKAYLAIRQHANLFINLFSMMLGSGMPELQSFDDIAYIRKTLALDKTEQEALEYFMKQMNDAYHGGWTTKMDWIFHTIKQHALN
# [25] = system: Phosphatidylinositol 4,5-bisphosphate 3-kinase catalytic subunit alpha isoform (Homo sapiens), P42336 [Q546K]; conditions: Compound concentration 1000.0 nM
# [26] = target: Phosphatidylinositol 4-kinase beta (Homo sapiens) (UniProt Q9UBF8); conditions: Compound concentration 1000.0 nM
# [27] = target: Interferon-induced, double-stranded RNA-activated protein kinase (Homo sapiens) (UniProt P19525); conditions: Compound concentration 1000.0 nM
# [28] = target: Receptor-interacting serine/threonine-protein kinase 4 (Homo sapiens) (UniProt P57078); conditions: Compound concentration 1000.0 nM
# [29] = target: Rho-associated protein kinase 1 (Homo sapiens) (UniProt Q13464); conditions: Compound concentration 1000.0 nM
# Chain of Rho-associated protein kinase 1 (Homo sapiens) (Q13464 2-1354 limits assumed): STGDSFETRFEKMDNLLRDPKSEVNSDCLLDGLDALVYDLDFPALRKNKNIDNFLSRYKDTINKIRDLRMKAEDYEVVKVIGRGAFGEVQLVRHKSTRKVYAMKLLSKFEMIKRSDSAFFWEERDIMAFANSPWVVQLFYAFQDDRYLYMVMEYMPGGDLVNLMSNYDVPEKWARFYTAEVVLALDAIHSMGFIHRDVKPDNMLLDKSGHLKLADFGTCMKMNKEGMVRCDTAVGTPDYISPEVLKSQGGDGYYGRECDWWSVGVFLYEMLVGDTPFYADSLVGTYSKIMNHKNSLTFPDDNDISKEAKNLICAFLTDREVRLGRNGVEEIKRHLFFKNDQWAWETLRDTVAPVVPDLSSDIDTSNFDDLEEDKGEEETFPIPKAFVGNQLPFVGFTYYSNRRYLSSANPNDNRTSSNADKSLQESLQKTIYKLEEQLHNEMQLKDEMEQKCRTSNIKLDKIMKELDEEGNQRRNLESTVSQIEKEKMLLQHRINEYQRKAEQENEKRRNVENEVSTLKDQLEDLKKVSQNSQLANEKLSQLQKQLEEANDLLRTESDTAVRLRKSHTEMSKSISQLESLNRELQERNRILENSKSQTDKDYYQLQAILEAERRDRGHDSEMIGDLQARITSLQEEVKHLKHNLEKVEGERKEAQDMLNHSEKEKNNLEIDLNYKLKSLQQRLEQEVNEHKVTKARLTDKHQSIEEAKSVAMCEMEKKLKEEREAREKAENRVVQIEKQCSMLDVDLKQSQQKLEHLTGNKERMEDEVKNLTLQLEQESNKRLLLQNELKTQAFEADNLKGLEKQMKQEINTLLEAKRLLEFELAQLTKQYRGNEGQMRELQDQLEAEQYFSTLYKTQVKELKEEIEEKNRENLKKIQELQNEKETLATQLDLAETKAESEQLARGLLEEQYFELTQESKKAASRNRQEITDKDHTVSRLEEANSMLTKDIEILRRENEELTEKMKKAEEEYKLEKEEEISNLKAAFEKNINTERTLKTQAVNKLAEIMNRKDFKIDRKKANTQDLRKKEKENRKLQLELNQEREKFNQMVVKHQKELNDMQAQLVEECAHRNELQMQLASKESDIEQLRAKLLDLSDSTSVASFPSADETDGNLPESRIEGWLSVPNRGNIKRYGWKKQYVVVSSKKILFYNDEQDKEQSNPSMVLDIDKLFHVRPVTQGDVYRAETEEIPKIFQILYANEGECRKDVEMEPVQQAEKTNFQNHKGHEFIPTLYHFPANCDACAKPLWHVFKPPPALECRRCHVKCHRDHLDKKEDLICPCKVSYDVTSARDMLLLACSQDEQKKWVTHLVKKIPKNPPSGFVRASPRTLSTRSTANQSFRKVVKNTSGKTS
# [30] = target: Tyrosine-protein kinase Tec (Homo sapiens) (UniProt P42680); conditions: Compound concentration 1000.0 nM
# Chain of Tyrosine-protein kinase Tec (Homo sapiens) (P42680 whole entry): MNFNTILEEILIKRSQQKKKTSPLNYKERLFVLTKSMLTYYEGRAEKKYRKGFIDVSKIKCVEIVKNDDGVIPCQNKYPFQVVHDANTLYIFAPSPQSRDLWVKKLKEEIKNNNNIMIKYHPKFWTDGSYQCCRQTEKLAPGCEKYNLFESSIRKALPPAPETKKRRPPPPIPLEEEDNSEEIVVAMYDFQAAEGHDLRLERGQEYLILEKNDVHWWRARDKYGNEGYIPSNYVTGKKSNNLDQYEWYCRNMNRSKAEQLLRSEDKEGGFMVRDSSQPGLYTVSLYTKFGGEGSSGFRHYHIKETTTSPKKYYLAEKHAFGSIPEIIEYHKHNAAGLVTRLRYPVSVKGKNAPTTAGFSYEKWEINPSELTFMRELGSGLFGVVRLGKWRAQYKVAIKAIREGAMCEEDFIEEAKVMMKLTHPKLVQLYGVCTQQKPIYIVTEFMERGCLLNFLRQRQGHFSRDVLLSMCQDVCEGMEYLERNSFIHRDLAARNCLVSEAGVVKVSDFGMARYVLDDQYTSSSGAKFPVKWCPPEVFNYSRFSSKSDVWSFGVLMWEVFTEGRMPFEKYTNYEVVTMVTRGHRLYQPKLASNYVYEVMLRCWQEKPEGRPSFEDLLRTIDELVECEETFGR
# [31] = target: TGF-beta receptor type-1 (Homo sapiens) (UniProt P36897); conditions: Compound concentration 1000.0 nM
# [32] = target: Dual specificity protein kinase TTK (Homo sapiens) (UniProt P33981); conditions: Compound concentration 1000.0 nM
# [33] = target: Phosphatidylinositol 3-kinase catalytic subunit type 3 (Homo sapiens) (UniProt Q8NEB9); conditions: Compound concentration 1000.0 nM
# [34] = target: 5-hydroxytryptamine receptor 2B (Homo sapiens) (UniProt P41595); conditions: Compound concentration 10.0 uM
# Chain of 5-hydroxytryptamine receptor 2B (Homo sapiens) (P41595 whole entry): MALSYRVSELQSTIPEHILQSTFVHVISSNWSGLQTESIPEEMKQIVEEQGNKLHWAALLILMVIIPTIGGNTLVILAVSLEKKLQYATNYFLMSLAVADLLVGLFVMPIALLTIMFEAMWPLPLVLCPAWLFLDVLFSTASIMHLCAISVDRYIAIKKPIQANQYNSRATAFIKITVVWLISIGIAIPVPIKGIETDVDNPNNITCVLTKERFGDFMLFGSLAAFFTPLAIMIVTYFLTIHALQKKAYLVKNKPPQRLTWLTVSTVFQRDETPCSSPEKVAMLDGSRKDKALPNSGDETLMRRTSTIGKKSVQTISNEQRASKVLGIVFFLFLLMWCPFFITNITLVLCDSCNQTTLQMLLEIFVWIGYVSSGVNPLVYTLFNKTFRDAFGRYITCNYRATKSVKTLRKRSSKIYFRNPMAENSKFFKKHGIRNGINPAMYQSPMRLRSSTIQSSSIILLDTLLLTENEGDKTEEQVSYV
# [35] = target: Histamine H1 receptor (Homo sapiens) (UniProt P35367); conditions: Compound concentration 10.0 uM
# [36] = target: Sigma non-opioid intracellular receptor 1 (Homo sapiens) (UniProt Q99720); conditions: Compound concentration 10.0 uM
SMILES,"inhibition at 60 min, 10 µM [1] [%]",% Inhibition of Control Specific Binding (Mean n=2) [2] [%],% Inhibition of Control Specific Binding (Mean n=2) [3] [%],% Inhibition of Control Specific Binding (Mean n=2) [4] [%],% Inhibition of Control Specific Binding (Mean n=2) [5] [%],residual activity [6] [%],residual activity [7] [%],residual activity [8] [%],residual activity [9] [%],residual activity [10] [%],residual activity [11] [%],residual activity [12] [%],residual activity [13] [%],residual activity [14] [%],residual activity [15] [%],residual activity [16] [%],residual activity [17] [%],residual activity [18] [%],residual activity [19] [%],residual activity [20] [%],other results
O=C(NS(=O)(=O)c1ccc(NCC2CCOCC2)c([N+](=O)[O-])c1)c1ccc(N2CCN(Cc3ccc(C(F)(F)F)cc3-c3ccc(Cl)cc3)CC2)cc1Oc1cnc2[nH]ccc2c1 [A-1210227],-4.3,-5.1,0.3,-284,-10.3,100,86,90,94,87,80,100,94,100,85,85,100,100,100,94,residual activity [21]: 100%; residual activity [22]: 93%; residual activity [23]: 85%; residual activity [24]: 67%; residual activity [25]: 100%; residual activity [26]: 79%; residual activity [27]: 94%; residual activity [28]: 75%; residual activity [29]: 100%; residual activity [30]: 71%; residual activity [31]: 93%; residual activity [32]: 100%; residual activity [33]: 100%; inhibition [34]: -2.34%; inhibition [35]: -9.16%; inhibition [36]: 11.1%
CO[C@H]1CC[C@H](CNc2ccc(S(=O)(=O)NC(=O)c3ccc(N4CCN(CC5=C(c6ccc(Cl)cc6)CC(C)(C)CC5)CC4)cc3Oc3cnc4[nH]ccc4c3)cc2[N+](=O)[O-])CC1 [A-1211212],16.9,-3.8,-4.7,-60.6,-2.6,71,71,100,94,78,100,99,67,97,96,83,87,100,96,100,residual activity [21]: 100%; residual activity [22]: 100%; residual activity [23]: 90%; residual activity [24]: 70%; residual activity [25]: 100%; residual activity [26]: 97%; residual activity [27]: 90%; residual activity [28]: 65%; residual activity [29]: 70%; residual activity [30]: 74%; residual activity [31]: 84%; residual activity [32]: 82%; residual activity [33]: 100%; inhibition [34]: 3.54%; inhibition [35]: 34.2%; inhibition [36]: 49.8%
